Assay results published in patent US6737383B1, “Herbicidal oxadiazolidines” (priority 1999, dated 2004).

Tests used:
bedstraw = experiment: Test B pre/postemergence bedstraw; type: in vivo, Galium aparine
Method in brief: (§1)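 Herbicidal effect was estimated by eye on a ten-point control scale after plants spent twelve to sixteen days in a greenhouse following soil or foliar treatment. Foliar sprays targeted plants at one to four leaves; all doses were formulated in a non-phytotoxic solvent with surfactant.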

surinam grass = experiment: Test B pre/postemergence surinam grass; type: in vivo, Brachiaria decumbens
Method in brief: as §1

sugar beet = experiment: Test B pre/postemergence sugar beet; type: in vivo, Beta vulgaris; conditions: Preemergence
Method in brief: as §1

corn = experiment: Test B pre/postemergence corn; type: in vivo, Zea mays
Method in brief: as §1

wild oat = experiment: Test B pre/postemergence wild oat; type: in vivo, Avena fatua; conditions: Preemergence
Method in brief: as §1

wheat = experiment: Test B pre/postemergence wheat; type: in vivo, Triticum aestivum; conditions: Preemergence
Method in brief: as §1

smallflower flatsedge = experiment: Test B flood test smallflower flatsedge; type: in vivo, Cyperus difformis
Method in brief: (§2)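 Each value is a visual injury score relative to controls, with 10 meaning complete control and 0 no effect. Evaluation took place twelve to sixteen days after the 2-leaf-stage plants were treated and kept in the greenhouse.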

cocklebur = experiment: Test B pre/postemergence cocklebur; type: in vivo, Xanthium strumarium
Method in brief: as §1

purple nutsedge = experiment: Test B pre/postemergence purple nutsedge; type: in vivo, Cyperus rotundus; conditions: Postemergence
Method in brief: as §1

crabgrass = experiment: Test B pre/postemergence crabgrass; type: in vivo, Digitaria sanguinalis
Method in brief: as §1

rape = experiment: Test B pre/postemergence rape; type: in vivo, Brassica napus
Method in brief: as §1

velvetleaf = experiment: Test B pre/postemergence velvetleaf; type: in vivo, Abutilon theophrasti; conditions: Preemergence
Method in brief: as §1

blackgrass = experiment: Test B pre/postemergence blackgrass; type: in vivo, Alopecurus myosuroides
Method in brief: as §1

soybean = experiment: Test B pre/postemergence soybean; type: in vivo, Glycine max; conditions: Preemergence
Method in brief: as §1

morningglory = experiment: Test B pre/postemergence morningglory; type: in vivo, Ipomoea hederacea
Method in brief: as §1

pigweed = experiment: Test B pre/postemergence pigweed; type: in vivo, Amaranthus retroflexus
Method in brief: as §1

giant foxtail = experiment: Test B pre/postemergence giant foxtail; type: in vivo, Setaria faberii
Method in brief: as §1

duck salad = experiment: Test B flood test duck salad; type: in vivo, Heteranthera limosa
Method in brief: as §2

bamyardgrass = experiment: Test B flood test barnyardgrass; type: in vivo, Echinochloa crus-galli
Method in brief: as §2

rice = experiment: Test B flood test rice; type: in vivo, Oryza sativa
Method in brief: as §2

[1] = Preemergence, Rate 31 g/ha, visual rating, scale 0 to 10 (0 no effect, 10 complete control)
[2] = Preemergence, Rate 62 g/ha, scale of 0 to 10 where 0 is no effect and 10 is complete control
[3] = Preemergence, Rate 250 g/ha, scale of 0 to 10 where 0 is no effect and 10 is complete control
[4] = Rate 31 g/ha, Postemergence, scale 0 to 10
[5] = Rate 62 g/ha, Postemergence, scale of 0 to 10 where 0 is no effect and 10 is complete control
[6] = Rate 125 g/ha, Postemergence, scale 0 to 10
[7] = Rate 125 g/ha, Preemergence, scale of 0 to 10 where 0 is no effect and 10 is complete control
[8] = Rate 31 g/ha, visual rating, scale 0 to 10 (0 no effect, 10 complete control)
[9] = Rate 62 g/ha, scale of 0 to 10 where 0 is no effect and 10 is complete control
[10] = Rate 250 g/ha, scale of 0 to 10 where 0 is no effect and 10 is complete control
[11] = Rate 125 g/ha, scale of 0 to 10 where 0 is no effect and 10 is complete control
[12] = Rate 62 g/ha, headed Pre-emergence (flood test species), scale 0 to 10 (0 no effect, 10 complete control)
[13] = Rate 125 g/ha, Pre-emergence, flood test species, scale 0 to 10 where 0 is no effect and 10 is complete control
[14] = Rate 250 g/ha, Pre-emergence, flood-test species, scale 0 to 10, 0 is no effect, 10 is complete control
[15] = Rate 500 g/ha, Pre-emergence, flood test species, scale 0 to 10 (0 no effect, 10 complete control)

CCC(=O)Cn1c(=O)on(C(=O)N(c2ccc(F)cc2)C(C)C)c1=O [Compound 252]
Bedstraw plant response rating (bedstraw; [1]): 0
Bedstraw plant response rating (bedstraw; [2]): 0
Bedstraw plant response rating (bedstraw; [3]): 0
Bedstraw plant response rating (bedstraw; [4]): 0
Bedstraw plant response rating (bedstraw; [5]): 0
Bedstraw plant response rating (bedstraw; [6]): 0
Bedstraw plant response rating (bedstraw; [7]): 0
Plant response rating (0 to 10; 0 is no effect, 10 is complete control), Bedstraw (bedstraw; Rate 250 g/ha, Postemergence): 0
B. signalgrass plant response rating (surinam grass; [1]): 0
B. signalgrass plant response rating (surinam grass; [2]): 0
B. signalgrass plant response rating (surinam grass; [3]): 0
B. signalgrass plant response rating (surinam grass; [4]): 0
B. signalgrass plant response rating (surinam grass; [5]): 0
B. signalgrass plant response rating (surinam grass; Rate 125 g/ha, Postemergence, scale 0 (no effect) to 10 (complete control)): 0
B. signalgrass plant response rating (surinam grass; [7]): 0
Plant response rating (0 to 10; 0 is no effect, 10 is complete control), B. signalgrass (surinam grass; Rate 250 g/ha, Postemergence): 0
Sugarbeets plant response rating (sugar beet; [8]): 0
Sugarbeets plant response rating (sugar beet; [9]): 0
Sugarbeets plant response rating (sugar beet; [10]): 3
Sugarbeets plant response rating (sugar beet; [11]): 3
Corn plant response rating (corn; [1]): 0
Corn plant response rating (corn; [2]): 0
Corn plant response rating (corn; [3]): 0
Corn plant response rating (corn; [4]): 0
Corn plant response rating (corn; [5]): 0
Corn plant response rating (corn; [6]): 0
Corn plant response rating (corn; [7]): 0
Plant response rating (0 to 10; 0 is no effect, 10 is complete control), Corn (corn; Rate 250 g/ha, Postemergence): 0
Wild oats plant response rating (wild oat; [8]): 0
Wild oats plant response rating (wild oat; [9]): 0
Wild oats plant response rating (wild oat; [10]): 3
Wild oats plant response rating (wild oat; [11]): 0
Wheat plant response rating (wheat; [8]): 0
Wheat plant response rating (wheat; [9]): 0
Wheat plant response rating (wheat; [10]): 2
Wheat plant response rating (wheat; [11]): 0
S. Flatsedge plant response rating (smallflower flatsedge; [12]): 0
S. Flatsedge plant response rating (smallflower flatsedge; [13]): 0
S. Flatsedge plant response rating (smallflower flatsedge; [14]): 0
S. Flatsedge plant response rating (smallflower flatsedge; [15]): 0
Cocklebur plant response rating (cocklebur; [1]): 0
Cocklebur plant response rating (cocklebur; [2]): 0
Cocklebur plant response rating (cocklebur; [4]): 0
Cocklebur plant response rating (cocklebur; [5]): 0
Cocklebur plant response rating (cocklebur; [6]): 0
Cocklebur plant response rating (cocklebur; [7]): 0
Plant response rating (0 to 10; 0 is no effect, 10 is complete control), Cocklebur (cocklebur; Rate 250 g/ha, Postemergence): 0
Nutsedge plant response rating (purple nutsedge; Rate 31 g/ha, scale 0 to 10): 0
Plant response rating (0 to 10; 0 is no effect, 10 is complete control), Nutsedge (purple nutsedge; Rate 250 g/ha): 0
Crabgrass plant response rating (crabgrass; [1]): 0
Crabgrass plant response rating (crabgrass; [2]): 0
Crabgrass plant response rating (crabgrass; [3]): 4
Crabgrass plant response rating (crabgrass; [4]): 0
Crabgrass plant response rating (crabgrass; [7]): 2
Plant response rating (0 to 10; 0 is no effect, 10 is complete control), Crabgrass (crabgrass; Rate 250 g/ha, Postemergence): 6
Rape plant response rating (rape; [1]): 0
Rape plant response rating (rape; [2]): 0
Rape plant response rating (rape; [3]): 3
Rape plant response rating (rape; [4]): 0
Rape plant response rating (rape; [7]): 0
Plant response rating (0 to 10; 0 is no effect, 10 is complete control), Rape (rape; Rate 250 g/ha, Postemergence): 0
Velvetleaf plant response rating (velvetleaf; [8]): 0
Velvetleaf plant response rating (velvetleaf; [9]): 0
Velvetleaf plant response rating (velvetleaf; [10]): 2
Velvetleaf plant response rating (velvetleaf; [11]): 0
Blackgrass plant response rating (blackgrass; [1]): 0
Blackgrass plant response rating (blackgrass; [2]): 0
Blackgrass plant response rating (blackgrass; [3]): 4
Blackgrass plant response rating (blackgrass; [4]): 0
Blackgrass plant response rating (blackgrass; [5]): 0
Blackgrass plant response rating (blackgrass; [6]): 2
Blackgrass plant response rating (blackgrass; [7]): 2
Plant response rating (0 to 10; 0 is no effect, 10 is complete control), Blackgrass (blackgrass; Rate 250 g/ha, Postemergence): 5
Soybean plant response rating (soybean; [8]): 0
Soybean plant response rating (soybean; [9]): 0
Soybean plant response rating (soybean; [10]): 0
Soybean plant response rating (soybean; [11]): 0
Morningglory plant response rating (morningglory; [1]): 0
Morningglory plant response rating (morningglory; [2]): 0
Morningglory plant response rating (morningglory; [3]): 0
Morningglory plant response rating (morningglory; [4]): 2
Morningglory plant response rating (morningglory; [7]): 0
Plant response rating (0 to 10; 0 is no effect, 10 is complete control), Morningglory (morningglory; Rate 250 g/ha, Postemergence): 3
Redroot pigweed plant response rating (pigweed; [1]): 0
Redroot pigweed plant response rating (pigweed; [2]): 0
Redroot pigweed plant response rating (pigweed; [3]): 0
Redroot pigweed plant response rating (pigweed; [4]): 0
Redroot pigweed plant response rating (pigweed; [7]): 0
Plant response rating (0 to 10; 0 is no effect, 10 is complete control), Redroot pigweed (pigweed; Rate 250 g/ha, Postemergence): 0
Giant foxtail plant response rating (giant foxtail; [1]): 3
Giant foxtail plant response rating (giant foxtail; [2]): 3
Giant foxtail plant response rating (giant foxtail; [3]): 10
Giant foxtail plant response rating (giant foxtail; [4]): 0
Giant foxtail plant response rating (giant foxtail; [7]): 9
Plant response rating (0 to 10; 0 is no effect, 10 is complete control), Giant foxtail (giant foxtail; Rate 250 g/ha, Postemergence): 4
Ducksalad plant response rating (duck salad; [12]): 0
Ducksalad plant response rating (duck salad; [13]): 0
Ducksalad plant response rating (duck salad; [14]): 0
Ducksalad plant response rating (duck salad; [15]): 0
Barnyardgrass plant response rating (bamyardgrass; [12]): 0
Barnyardgrass plant response rating (bamyardgrass; [13]): 0
Barnyardgrass plant response rating (bamyardgrass; [14]): 0
Barnyardgrass plant response rating (bamyardgrass; [15]): 0
Rice plant response rating (rice; [12]): 0
Rice plant response rating (rice; [13]): 0
Rice plant response rating (rice; [14]): 0
Rice plant response rating (rice; [15]): 0
